Reference: US10550388B2, “Targeting pleiotrophin signaling to limit high-grade glioma invasion” (The Board of Trustees of the Leland Stanford Junior …, priority 2017, dated 2020)

Experiments:
[1] = rodent models (Egorin et al. 2001); cited from earlier work
SU-DIPG-XIII FL cells [2] = experiment: Matrigel invasion assay (Boyden chamber) of DIPG cells; type: cell-based, human; details: 72 hours; for DIPG invasion toward SVZ hNPC CM: inhibitor added to the cells in the top insert, dose curve, vehicle DMSO control
Method: To test for chemoattraction and invasion toward neural precursor cell conditioned media or another candidate chemoattractant, a single-cell suspension of 100,000 DIPG cells in Tumor Stem Media (TSM) base (with B27 (−A) and heparin, without growth factors) was seeded in the top inserts of BioCoat growth factor reduced Matrigel invasion chambers (Corning, Bedford, Mass.), after rehydration of the inserts. Chemoattractant media was added to the bottom of the chamber. All conditions were plated in triplicate. After 72 hours, media was aspirated, and the non-invading cells on top of the layer of Matrigel were scrubbed off. The invading cells were fixed in 4% paraformaldehyde and then stained with 0.1% crystal violet in 10% methanol in distilled water. The number of invading cells was quantified by the intensity of the crystal violet dye on the invading side of the Matrigel. The dye was collected in 10% acetic acid, and absorbance was measured at 595 nm.
To test the ROCK or HSP90 inhibitors in the Matrigel invasion assay, the inhibitors were added to the suspension of glioma cells in TSM base (with B27 (−A) and heparin) seeded in the top inserts at the appropriate concentrations, and neural precursor cell conditioned media was plated in the bottom chambers. The rest of the procedure was performed as described above.

SU-DIPG-XIII FL cells [3] = experiment: CellTiter-Glo cell viability assay; type: cell-based, human; details: increasing doses of inhibitor; 72 hours
Method: To assess cell viability, 5,000 DIPG cells per well were seeded in base media or full growth media in a 96-well plate. Inhibitors were added at the appropriate concentrations. After 72 hours, CellTiter-Glo reagent 2.0 was added at a 1:1 ratio, and cells were lysed. Luminescence was measured after stabilization of signal for 10 minutes at room temperature.

SU-DIPG-XIII FL cells [4] = experiment: shRNA-expressing lentivirus injected into the SVZ of orthotopically xenografted mice; type: in vivo, NSG mice; details: vs scrambled shRNA control; for DIPG cells invading the SVZ: 16 weeks following pontine xenograft
Method: NSG mice at age P34-36 were orthotopically xenografted with SU-DIPG-XIII frontal lobe CMV-GFP-luciferase cells, in a similar procedure to as previously described (Grasso et al., supra; Venkatesh et al. (2015) Cell 161, 803-816). Briefly, a single-cell suspension of SU-DIPG-XIII frontal lobe CMV-GFP-luciferase cells at passage 16-19 was prepared in sterile HBSS immediately before beginning the xenograft procedure. 600,000 cells in 3 μL were stereotactically injected into the pons of the left hemisphere of NSG mice, through a 31-gauge burr hole. Stereotactic coordinates used were: 1 mm lateral to midline, 0.8 mm posterior to lambda suture, and 5 mm deep. Cells were injected at a rate of 0.4 μL/min using a digital pump and a 31-gauge Hamilton syringe. After infusion of cells, the syringe needle was kept in place for 2 minutes, and then withdrawn manually at a rate of 0.875 mm/min to minimize the backflow of cells.
(§1) Mice used for shRNA lentivirus studies received shRNA-expressing lentivirus in the SVZ at P27-29 and DIPG cells in the left pons at P34-36. For lentiviral injections, 2 μL of shRNA-expressing lentivirus were stereotactically injected into the SVZ. Stereotactic coordinates used were: 1.3 mm lateral to midline, 0.1 mm posterior to bregma suture, and 2 mm deep. Virus was injected and the needle was withdrawn according to the same procedure as described above.
Mice were imaged using an IVIS Spectrum to ensure tumor engraftment and monitor tumor size. Mice were anesthetized under 1% isoflurane, intraperitoneally injected with luciferin (15 mg/kg), and imaged for bioluminescence every minute until the peak total flux was reached.
For quantification of DIPG invasion of the SVZ after knock down of targets in the SVZ, 5 NSG mice per group were injected with shRNA-expressing lentivirus in bilateral SVZs and orthotopically xenografted with SU-DIPG-XIII FL in the left pons. Mice were perfused for analysis 16 weeks after xenograft. A 1:6 series of coronal slices from each mouse brain was immunostained and imaged, and the number of GFP^+ HNA^+ glioma cells within 200 μm of the lateral ventricles in all slices containing lateral ventricles was manually counted.
For quantification of neural stem/precursor cells in the SVZ after knock down of PTN in the SVZ, a 1:6 series of coronal slices from each mouse was immunostained and imaged, and the number of Sox2^+ neural stem/precursor cells in a 20×Z-stack was manually counted. The density of Sox2^+ cells was calculated as cells/mm^3.

pleiotrophin = experiment: Knockdown of pleiotrophin expression in the mouse SVZ; type: in vivo; details: stereotactic injection into the mouse SVZ; vs scrambled shRNA control
Method: as §1
Mice were intraperitoneally injected with Avertin (tribromoethanol) for anesthesia, and then transcardially perfused with 20 mL of ice-cold PBS. Brains were dissected out and fixed in 4% paraformaldehyde in PBS overnight at 4° C., and were then transferred to 30% sucrose in PBS for cryoprotection. Brains were embedded in Tissue-Tek O.C.T. (Sakura, Torrance, Calif.). Brains from mice older than P10 were sliced into 40 μm coronal or sagittal sections using a sliding microtome (Microm HM450; Thermo Scientific, Waltham, Mass.). Brains from mice age P0 to P10 were sliced into 25 μm coronal sections using a cryostat (Leica Biosystems CM3050 S; 1058 Wetzlar, Germany). For immunohistochemistry, a 1 in 6 series of 25 μm or 40 μm sections was incubated in blocking solution (3% normal donkey serum, 0.3% Triton X-100 in TBS) at room temperature for 1 hour. […]

Molecule: C=CCNC1=C2C[C@@H](C)C[C@H](OC)[C@H](O)[C@@H](C)/C=C(\C)[C@H](OC(N)=O)[C@@H](OC)/C=C\C=C(/C)C(=O)NC(=CC1=O)C2=O [17-AAG, tanespimycin, reference compound]
- Brain penetration [1]: less than 1 μM
- concentrations at which invasion toward SVZ hNPC CM is decreased (SU-DIPG-XIII FL cells [2]; in vitro, inhibitor in the top insert): above 1 μM

Molecule: CCn1c(-c2nonc2N)nc2cnc(Oc3cccc(NC(=O)c4ccc(OCCN5CCOCC5)cc4)c3)cc21 [GSK 269962A, reference compound]
- DIPG invasion toward SVZ hNPC CM (SU-DIPG-XIII FL cells [2]): decreased DIPG invasion toward SVZ hNPC CM in a dose-dependent manner
- cell viability of DIPG cells (SU-DIPG-XIII FL cells [3]): do not affect cell viability at sub-μM concentrations

Molecule: CC1=C(C(=O)Nc2cc3cn[nH]c3cc2F)C(c2ccc(C(F)(F)F)cc2)CC(=O)N1 (stereo not drawn) [GSK 429286, reference compound]
- DIPG invasion toward SVZ hNPC CM (SU-DIPG-XIII FL cells [2]): decreased DIPG invasion toward SVZ hNPC CM in a dose-dependent manner
- cell viability of DIPG cells (SU-DIPG-XIII FL cells [3]): do not affect cell viability at sub-μM concentrations

Molecule: sh-Ptn: lentivirus-expressed shRNA against mouse PTN, Sigma TRCNO000071676, SEQ ID NO: 8 (CCGGGCACAATGCTGACTGTCAGAACTCGAGTTCTGACAGTCAGCATTGTGCTTTTTG)
- DIPG cells invading the SVZ (SU-DIPG-XIII FL cells [4]): fewer orthotopically xenografted GFP^+ HNA^+ SU-DIPG-XIII FL cells invaded the SVZ
- DIPG cells invading the SVZ (SU-DIPG-XIII FL cells [4]; listed as shRNA targeting Ptn): fewer DIPG cells invaded the SVZ
- density of Sox2+ neural stem/precursor cells in the SVZ (SU-DIPG-XIII FL cells [4]): equivalent
- tumor engraftment (bioluminescent flux) (SU-DIPG-XIII FL cells [4]): equivalent
- density of Sox2+ neural stem/precursor cells in the SVZ (SU-DIPG-XIII FL cells [4]; listed as Ptn shRNA): equivalent numbers of Sox2^+ NPCs
- knockdown of pleiotrophin expression (pleiotrophin): effective knockdown of pleiotrophin expression
